pIC50: −log10 of the molar value. Read-outs that look alike come from different tables or passages of the source.
Tests used:
RAW 264.7 cells [1] = experiment: Whole cell inhibition assay for urea output; type: cell-based, murine; details: for pIC50: interpolated, γIFN+LPS-activated RAW 264.7, 18 hours, read-out: I.C.50 (in parenthesis), inhibition of urea production; for urea % suppression of induced production: γIFN+LPS, 18 hours
Procedure: (§1) RAW 264.7 cells are plated in microculture wells at 1×10^6/ml in RPMI 1640 with 10% FBS and otherwise standard culture conditions and allowed to adhere for 5 hours. They are then activated with 25 U/ml γIFN and 0.1 μg/ml LPS in the presence of test inhibitors. The urea concentration present in the supernatant media, after 18 hours of culture, is determined by a colorimetric blood urea nitrogen diacetylmonoxime assay performed on an aliquot of the culture supernatant (Sigma Chem. Co., St. Louis, Mo.) and inhibition is expressed as the percentage urea compared to that of a parallel control culture treated identically except that the concentration of added inhibitor is zero.
(§2) Various concentrations of the test compounds are included in the media of the stimulated RAW 264.7 cells in culture. The concentration of urea and/or nitrite after 18 hours of activated culture is determined and compared to the uninhibited control value obtained from at least one parallel culture. The fractional reduction is calculated for each concentration of inhibitor and the IC50 (concentration giving 50% reduction) is interpolated. Compounds were dissolved in media with mild heat (60° C.). Those with limited solubility were dissolved in base. The concentration of stock solutions of those compounds which were not completely soluble was determined by OD280.

RAW 264.7 cells [2] = experiment: Whole cell inhibition assay for NO (nitrite) output; type: cell-based, murine; details: γIFN+LPS, 18 hours
Procedure: as §1
The production of nitrite is determined by assay of the same tissue culture supernatant by means of a calorimetric assay. Briefly, 4 parts of test solution containing 1% (w/v) sulfanilamide, 0.1% naphthylethylenediamine di-HCl (Griess Reagent), 2.5% H3PO4 and one part media are mixed, incubated for 10 minutes and the absorbance at 560 nm determined. The nitrite concentrations are interpolated from reference curves prepared using NaNO2.
as §2
(§3) This section describes experiments that measure the concentration of Compound No. 14 needed to inhibit arginine uptake and NO output. The techniques employed were described in section 7.1 supra.

[3] = Solubility on preparing test solutions; type: physicochemical; details: preparation of test solutions
Procedure: as §2

RAW 264.7 cells [4] = experiment: Whole cell inhibition assay for arginine uptake; type: cell-based, murine; details: γIFN+LPS, 8 hours
Procedure: In the embodiment described in the working example herein, a test population of cells was cultured for about 3 hours so that the cells became firmly adherent. Various concentrations of the potential inhibitors were then added to parallel cultures. One hour later the macrophage stimulators, e.g. including, but not limited to LPS and γIFN, were added. Eighteen hours later the cells were washed in a warm balanced salt solution supplemented with glucose. Carrier-free radiolabelled arginine was added; after 5 minutes, active uptake of arginine was stopped by washing the cell three times with buffer, chilled to 0° C., containing 10 mM unlabeled arginine to displace any externally bound label. The contents of the washed cells are solubilized in 100 μl of formic acid and counted by standard techniques.
RAW 264.7 cells are plated in standard 96-well microculture plates at a concentration of 10^5/well and allowed to adhere for from 2 hours to overnight. The medium is then replaced with medium containing the compound to be tested. One hour later, the medium is supplemented so as to contain 25 U/ml γIFN and 0.1 μg/ml LPS and the cultures incubated a further. The cells are then rinsed twice in HEPES- buffered Krebs salt solution with 0.1% glucose. Carrier-free tetra-^3H-arginine is added to each well (2.5 μCi/well with specific activity of […]) and the active uptake of arginine is allowed to continue for a 5 minute period after which the cells are rapidly cooled to 0° C. by lavage with iced saline containing 10 mM unlabeled arginine to displace any externally bound label. The contents of the washed cells are solubilized in 100 Al of formic acid and counted by standard techniques. In subsequent experiments to determine the acitivity of the inhibitors, incubations were performed for 8 hours.
as §3

[5] = test system: Endothelial Derived Relaxing Factor (EDRF) activity; experiment: Acetylcholine-induced hypotensive (EDRF) response; type: in vivo, rats; details: 10 mg/Kg single intra-arterial dose; blood pressure 30 sec after ACh
Procedure: Female Sprague-Dawley rats (225-250 g body weight) were anesthetized with nembutal (50 mg/Kg, i.p.), a tracheostomy tube was inserted, and the carotid artery and jugular vein cannulated by standard methods using polyethylene tubing (PE 50). Tracey, K. J., et al., 1986, SCIENCE 234, 470-474. Blood pressure was recorded continuously with a pressure transducer and recorder (Model RS-3200, Gould Inc.,). In the experiment shown here, animals received a single sterile intra-arterial dose of either N^G-methyl-L-arginine (NMA; Sigma; 10 mg/Kg), Compound No. 14 (50 mg/Kg), or vehicle (0.4 ml). Acetylcholine (ACh) diluted in LPS-free sterile water was administered via the jugular vein cannula at the doses indicated. The solutions were diluted to produce a constant injectable volume of 1 ml/Kg body weight.
The hypotensive (EDRF) response was measured as the decline in mean arterial blood pressure recorded 30 sec after administration of ACh. The number of animals studied at each dose of acetylcholine was 4-6 for each experimental condition; data are expressed as the mean +s.e.m.

TNF = TNF production by LPS/γIFN-stimulated RAW 264.7 cells; type: cell-based, murine; details: even at concentrations of 10 μM
Procedure: RAW 264.7 cells were plated in standard 6-well culture plates at a density of 10^6/well and allowed to adhere for from 2 hr to overnight. The medium was then replaced with medium containing the compound to be tested. One hour later, the medium was supplemented so as to contain 25 U/ml γIFN and 0.1 μg/ml LPS and the cultures incubated a further 18 hr. The medium was then collected, and cell debris removed by centrifugation. This conditioned supernatant was then assayed for the presence of TNF using standard methodologies: L929 cell cytotoxicity bioassay, radioimmunoassay or ELISA, and Western blotting with antibodies against murine TNF.

[6] = dose 23.3 (dose unit not given)

COc1cc(C=NNC(=N)N)ccc1OCCOc1ccc(C=NNC(=N)N)cc1OC.Cl.Cl [Compound 17, 4,4′-(ethylenedioxy)di-m-anisaldehyde bis(amidinohydrazone) dihydrochloride]
pIC50 (RAW 264.7 cells [1]; Mus musculus, RAW264.7): 3.82 | urea % suppression of induced production (RAW 264.7 cells [1]; dose 177 μM): 54-100% | no2/no3 % suppression of induced production (RAW 264.7 cells [2]; dose 177 μM): 71-87% | Dissolved in (solubility) [3]: Not soluble | melting point: 322 to 323 °C (dec.)

CC(=NNC(=N)N)c1cccc(OCCOc2cccc(C(C)=NNC(=N)N)c2)c1.Cl.Cl [Compound 15, 2,2′-[1,2-ethanediylbis(oxy-3,1-phenyleneethylidyne)] bishydrazinecarboximidamide dihydrochloride]
urea % suppression of induced production (RAW 264.7 cells [1]; dose 5 μM): 8% | urea % suppression of induced production (RAW 264.7 cells [1]; dose 15.0 μM): 100% | urea % suppression of induced production (RAW 264.7 cells [1]; dose 150 μM): 100% | pIC50 (RAW 264.7 cells [1]): 5.00 | no2/no3 % suppression of induced production (RAW 264.7 cells [2]; dose 5 μM): 0% | no2/no3 % suppression of induced production (RAW 264.7 cells [2]; dose 15.0 μM): 9% | no2/no3 % suppression of induced production (RAW 264.7 cells [2]; dose 150 μM): 100% | arginine transport % suppression of induced peak (RAW 264.7 cells [4]; dose 5 μM): 10% | arginine transport % suppression of induced peak (RAW 264.7 cells [4]; dose 15.0 μM): 35% | arginine transport % suppression of induced peak (RAW 264.7 cells [4]; dose 150 μM): 100% | Dissolved in (solubility) [3]: Not soluble;

CNC(=N)NCCC[C@H](N)C(=O)O [NMA, N^G-methyl-L-arginine, reference compound]
acetylcholine-induced EDRF activity in vivo [5]: inhibited | inhibition of the production of TNF (TNF): did not inhibit

Cl.Cl.N=C(N)NN=Cc1cccc(OCCOc2cccc(C=NNC(=N)N)c2)c1 [Compound 16, 3,3′-(ethylenedioxy)dibenzaldehyde bis(amidinohydrazone) dihydrochloride]
pIC50 (RAW 264.7 cells [1]; Mus musculus, RAW264.7): 5.00 to 6.00 | urea % suppression of induced production (RAW 264.7 cells [1]; dose 5 μM): 40% | urea % suppression of induced production (RAW 264.7 cells [1]; dose 25 μM): 100% | urea % suppression of induced production (RAW 264.7 cells [1]; dose 250 μM): 100% | no2/no3 % suppression of induced production (RAW 264.7 cells [2]; dose 5 μM): 17% | no2/no3 % suppression of induced production (RAW 264.7 cells [2]; dose 25 μM): 90% | no2/no3 % suppression of induced production (RAW 264.7 cells [2]; dose 250 μM): 100% | arginine transport % suppression of induced peak (RAW 264.7 cells [4]; dose 5 μM): 26% | arginine transport % suppression of induced peak (RAW 264.7 cells [4]; dose 25 μM): 44% | arginine transport % suppression of induced peak (RAW 264.7 cells [4]; dose 250 μM): 100% | Dissolved in (solubility) [3]: Not soluble; | melting point: 264 to 266 °C

COc1ccc(C=NNC(=N)N)cc1OCCCOc1cc(C=NNC(=N)N)ccc1OC.Cl.Cl [Compound 18, 3,3′-(trimethylenedioxy)di-p-anisaldehyde bis(amidinohydrazone) dihydrochloride]
pIC50 (RAW 264.7 cells [1]; Mus musculus, RAW264.7): 4.60 | urea % suppression of induced production (RAW 264.7 cells [1]; dose 233 μM): 100% | urea % suppression of induced production (RAW 264.7 cells [1]; dose 7.7 (dose unit not given)): 9% | urea % suppression of induced production (RAW 264.7 cells [1]; [6]): 30% | no2/no3 % suppression of induced production (RAW 264.7 cells [2]; dose 233 μM): 100% | no2/no3 % suppression of induced production (RAW 264.7 cells [2]; dose 7.7 (dose unit not given)): 0% | no2/no3 % suppression of induced production (RAW 264.7 cells [2]; [6]): 13% | Dissolved in (solubility) [3]: Not soluble | melting point: 233 to 235 °C
